Data taken from patent US20240148821A1, “PHARMACEUTICAL USE OF CYCLIC PEPTIDE COMPOUND” (CHUGAI SEIYAKU KABUSHIKI KAISHA, priority 2021, published 2024).
Numbered stars: 1 amine (or outer) side, 2 acyl side, 3 side chain; on linkers, the order of the positions; unused ones are H or OH. Bridge positions count the residues as written; N and C are the ends. Square brackets hold non-standard residues; d marks the D form. Peptide text beside a SMILES is read from it. * marks the point of attachment. hPhe(3-Cl-4-CF3) = N[C@@H](CCc1ccc(C(F)(F)F)c(Cl)c1)C(=O)O; hPhe(3-F,4-CF3) = N[C@@H](CCc1ccc(C(F)(F)F)c(F)c1)C(=O)O; X24 = COc1cncc(C[C@@H](C(=O)[*:2])N(C)[*:1])c1; 3Oxa8azabicyclo(3.2.1)octane = C1CC2COCC1N2*; NMePhe(4-Cl) = CN[C@@H](Cc1ccc(Cl)cc1)C(=O)O; NMePhe(2-CN) = CN[C@@H](Cc1ccccc1C#N)C(=O)O; NMedβ3hAla = C[C@H](CC(=O)[*:2])N(C)[*:1]; NMeGly(cPent) = CN[C@H](C(=O)O)C1CCCC1; Phe(3-I) = N[C@@H](Cc1cccc(I)c1)C(=O)O; NMeCha = CN[C@@H](CC1CCCCC1)C(=O)O; NMeChg = CN[C@H](C(=O)O)C1CCCCC1; dNMeF = CN[C@H](Cc1ccccc1)C(=O)O; NMeβAla = CN(CCC(=O)[*:2])[*:1]; NMeD = CN[C@@H](CC(=O)O)C(=O)O; NMeL = CN[C@@H](CC(C)C)C(=O)O; NMehSer = CN[C@@H](CCO)C(=O)O; NMeV = CN[C@H](C(=O)O)C(C)C; d(β3hA) = C[C@@H](N)CC(=O)O; Pip = O=C(O)[C@@H]1CCCCN1; NMeA = CN[C@@H](C)C(=O)O; NMeAib = CNC(C)(C)C(=O)O; Nle = CCCC[C@H](N)C(=O)O; Piperidide = C1CCN(*)CC1; Ac5c = NC1(C(=O)O)CCCC1; Aze = O=C(O)[C@@H]1CCN1; Thp = NC1(C(=O)O)CCOCC1; Sar = CNCC(=O)O

Each compound was assayed on Human pancreatic cancer cell line AsPC-1 (G12D mutation Kras) (assay: AsPC-1 cell growth inhibition (AsPC-1 CGI)). Conditions: read-out: AsPC-1 cell growth inhibition, 50% growth inhibitory concentration (IC50 value); 96 hours, CellTiter-Glo, values classified in ranges.
Assay type: cell-based
Experimental: Test compounds were serially dilated with dimethyl sulfoxide, and 200 nL was then dispensed to a U-bottom 96-well plate using Labcyte Echo. […] The cell suspension was dispensed to a. plate containing a test compound at 100 μL per well and incubated at 37° C. in a 5% carbon dioxide gas incubator. 96 hours later, 80 μL of CellTiter-Glo (Promega) was added to each well and fluorescence was measured.
In the case of CC[C@H](C)[C@@H]1NC(=O)[C@H](CC(C)C)N(C)C(=O)C[C@@H](C(=O)N2CCCCC2)N(C)C(=O)[C@H](C2CCCCC2)N(C)C(=O)C2(CCCC2)NC(=O)[C@@H]2CCCCN2C(=O)[C@H](CCc2ccc(C(F)(F)F)c(Cl)c2)NC(=O)CN(C)C(=O)[C@H](CC2CCCCC2)N(C)C(=O)CN(C)C(=O)CN(C)C1=O [Compound 728] ([NMeL]I[Sar][Sar][NMeCha][Sar][hPhe(3-Cl-4-CF3)][Pip][Ac5c][NMeChg][NMeD]-Piperidide; lactam N-11), the IC50 is reported as > 500 nM. CC[C@H](C)[C@@H]1NC(=O)[C@H](CC(C)C)N(C)C(=O)C[C@@H](C(=O)N2C3CCC2COC3)N(C)C(=O)[C@H](C2CCCC2)N(C)C(=O)C2(CCCC2)NC(=O)[C@@H]2CCCN2C(=O)[C@H](CCc2ccc(C(F)(F)F)c(F)c2)NC(=O)CN(C)C(=O)[C@H](CC2CCCCC2)N(C)C(=O)[C@@H]2CCN2C(=O)[C@H](C)N(C)C1=O [Compound 734] ([NMeL]I[NMeA][Aze][NMeCha][Sar][hPhe(3-F,4-CF3)]P[Ac5c][NMeGly(cPent)][NMeD]-{3Oxa8azabicyclo(3.2.1)octane}; lactam N-11) was tested, and the IC50 was ≤ 20 nM. CC[C@H](C)[C@@H]1NC(=O)[C@H](CC(C)C)N(C)C(=O)C[C@@H](C(=O)N(C)C)N(C)C(=O)[C@H](C2CCCC2)N(C)C(=O)[C@H](C)NC(=O)[C@@H](C)NC(=O)[C@H](CCc2ccc(C(F)(F)F)c(Cl)c2)NC(=O)CN(C)C(=O)[C@H](CC2CCCCC2)N(C)C(=O)[C@@H]2CCN2C(=O)[C@H](C)N(C)C1=O [Compound 736] ([NMeL]I[NMeA][Aze][NMeCha][Sar][hPhe(3-Cl-4-CF3)][dA]A[NMeGly(cPent)][NMeD]-NMe2; lactam N-11) was tested, and the IC50 was > 500 nM. CC[C@H](C)[C@@H]1NC(=O)[C@H](CC(C)C)N(C)C(=O)C[C@@H](C)N(C)C(=O)[C@H](CC(C)C)N(C)C(=O)C2(CCOCC2)NC(=O)[C@@H]2CCCN2C(=O)[C@H](CCc2ccc(C(F)(F)F)c(Cl)c2)NC(=O)CN(C)C(=O)[C@H](CC2CCCCC2)N(C)C(=O)CN(C)C(=O)CN(C)C1=O [Compound 742] (cyclo(I[Sar][Sar][NMeCha][Sar][hPhe(3-Cl-4-CF3)]P[Thp][NMeL][NMedβ3hAla][NMeL])) was tested, and the IC50 was > 500 nM. With CC[C@H](C)[C@@H]1NC(=O)[C@H](CC(C)C)N(C)C(=O)C[C@@H](C(=O)N2CCCCC2)N(C)C(=O)[C@H](CCOC)N(C)C(=O)C2(CCCC2)NC(=O)[C@@H]2CCCN2C(=O)[C@H](CCc2ccc(C(F)(F)F)c(Cl)c2)NC(=O)CN(C)C(=O)[C@H](CC2CCCCC2)N(C)C(=O)CN(C)C(=O)CN(C)C1=O [Compound 744] ([NMeL]I[Sar][Sar][NMeCha][Sar][hPhe(3-Cl-4-CF3)]P[Ac5c][NMehSer](Me)[NMeD]-Piperidide; lactam N-11) the IC50 was > 500 nM. For CC[C@H](C)[C@@H]1NC(=O)CCN(C)C(=O)[C@@H](Cc2ccccc2)N(C)C(=O)[C@H](C2CCCC2)N(C)C(=O)C2(CCCC2)NC(=O)[C@@H]2CCCN2C(=O)[C@H](CCc2ccc(C(F)(F)F)c(Cl)c2)NC(=O)CN(C)C(=O)[C@H](CC2CCCCC2)N(C)C(=O)CN(C)C(=O)CN(C)C1=O [Compound 753] (cyclo([Ac5c][NMeGly(cPent)][dNMeF][NMeβAla]I[Sar][Sar][NMeCha][Sar][hPhe(3-Cl-4-CF3)]P)), the IC50 was > 500 nM. For CCCC[C@@H]1NC(=O)C(C)(C)N(C)C(=O)[C@H](CCCC)NC(=O)[C@H](Cc2cccc(I)c2)NC(=O)CN(C)C(=O)[C@H](Cc2ccc(Cl)cc2)N(C)C(=O)CN(C)C(=O)CN(C)C(=O)[C@H]([C@@H](C)CC)NC(=O)[C@H](CC(C)C)N(C)C(=O)C[C@@H](C(=O)N2CCCCC2)N(C)C1=O [Compound 765] ([NMeL]I[Sar][Sar][NMePhe(4-Cl)][Sar][Phe(3-I)][Nle][NMeAib][Nle][NMeD]-Piperidide; lactam N-11), the IC50 was > 500 nM. In the case of CC[C@H](C)[C@@H]1NC(=O)[C@H](CC(C)C)N(C)C(=O)C[C@@H](C)NC(=O)[C@H](C(C)C)N(C)C(=O)C2(CCCC2)NC(=O)[C@@H]2CCCN2C(=O)[C@H](CCc2ccc(C(F)(F)F)c(Cl)c2)NC(=O)CN(C)C(=O)[C@H](Cc2ccccc2C#N)N(C)C(=O)CN(C)C(=O)CN(C)C1=O [Compound 767] (cyclo([Ac5c][NMeV][d(β3hA)][NMeL]I[Sar][Sar][NMePhe(2-CN)][Sar][hPhe(3-Cl-4-CF3)]P)), the IC50 is reported as > 500 nM. For CC[C@H](C)[C@@H]1NC(=O)[C@H](CC(C)C)N(C)C(=O)C[C@@H](C(=O)N2CCCCC2)N(C)C(=O)[C@H](C2CCCCC2)N(C)C(=O)C2(CCCC2)NC(=O)[C@H](Cc2cncc(OC)c2)N(C)C(=O)[C@H](CCc2ccc(C(F)(F)F)c(Cl)c2)NC(=O)CN(C)C(=O)[C@H](CC2CCCCC2)N(C)C(=O)[C@@H]2CCN2C(=O)CN(C)C1=O [Compound 770] ([NMeL]I[Sar][Aze][NMeCha][Sar][hPhe(3-Cl-4-CF3)][X24][Ac5c][NMeChg][NMeD]-Piperidide; lactam N-11), the IC50 was > 500 nM.
